In article PMC6277434, “Discovery of a potent HMG-CoA reductase degrader that eliminates statin-induced reductase accumulation and lowers cholesterol” (Nature Communications, 2018):

Assays:
[1] = Body weight and food intake of treated mice; assay type: in vivo
[2] = target: T1, HMGCR (Cricetulus griseus, UniProt P00347); assay: Immunoblotting of endogenous HMGCR protein in CHO-7 (or CHG) cells; assay type: cell-based, Chinese hamster; conditions: for endogenous HMGCR protein (immunoblot), mean: DMSO = 100; for HMGCR protein fold change: untreated = 1
T1 construct: endogenous in cells; host or cells: CHO-7, CHG, SRD-13A, SRD-15
T1 sequence (P00347 1-887): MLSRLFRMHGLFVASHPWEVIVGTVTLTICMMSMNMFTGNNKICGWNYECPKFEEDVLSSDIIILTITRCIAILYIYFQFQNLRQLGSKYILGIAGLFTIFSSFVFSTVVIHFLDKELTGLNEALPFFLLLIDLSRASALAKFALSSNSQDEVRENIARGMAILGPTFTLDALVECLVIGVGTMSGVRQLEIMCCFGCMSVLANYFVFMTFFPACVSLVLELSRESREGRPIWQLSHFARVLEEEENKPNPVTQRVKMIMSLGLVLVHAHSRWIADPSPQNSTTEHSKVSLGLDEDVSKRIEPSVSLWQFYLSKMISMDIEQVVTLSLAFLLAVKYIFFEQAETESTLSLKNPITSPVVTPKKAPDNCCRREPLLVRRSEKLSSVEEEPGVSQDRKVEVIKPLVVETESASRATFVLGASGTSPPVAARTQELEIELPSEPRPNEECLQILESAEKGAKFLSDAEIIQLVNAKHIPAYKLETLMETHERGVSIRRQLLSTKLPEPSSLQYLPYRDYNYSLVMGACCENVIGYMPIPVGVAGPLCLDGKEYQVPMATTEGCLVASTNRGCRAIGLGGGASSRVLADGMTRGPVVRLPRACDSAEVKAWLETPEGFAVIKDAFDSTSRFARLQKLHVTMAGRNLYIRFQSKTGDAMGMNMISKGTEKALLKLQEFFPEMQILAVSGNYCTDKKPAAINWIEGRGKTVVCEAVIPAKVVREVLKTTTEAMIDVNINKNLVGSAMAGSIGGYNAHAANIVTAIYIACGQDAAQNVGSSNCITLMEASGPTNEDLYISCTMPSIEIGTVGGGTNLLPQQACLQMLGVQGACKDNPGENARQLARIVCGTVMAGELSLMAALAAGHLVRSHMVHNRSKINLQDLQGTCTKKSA
Experimental: CHO-7 (Chinese hamster ovary cell, a clone of CHO-K1 cell line selected for growth in LPDS) and Huh7 (a human hepatocellular carcinoma cell line), SRD-13A (a Scap-deficient CHO-7 cell line) and SRD-15 (an Insig-1 and Insig-2-deficient CHO-7 cell line) were generous gifts from Russell Debose-Boyd at UT Southwestern Medical Center, USA. All cells were grown in a monolayer at 37 °C with 5% CO2. Huh7 cells were maintained in medium A supplemented with 10% FBS. CHO-7 and SRD-15 cells were maintained in medium B supplemented with 5% FBS. SRD-13A cells were maintained in medium B with 5% FBS, 5 μg ml^−1 cholesterol, 1 mM sodium mevalonate, 10 μM sodium oleate. No cell lines used in this study were found in the database of commonly misidentified cell lines that is maintained by ICLAC and NCBI Biosample. The cell lines have not been authenticated recently. No test for mycoplasma contamination was performed.
Cells were harvested and homogenized in the RIPA buffer (50 mM Tris-HCl, pH 8.0, 150 mM NaCl, 2 mM MgCl2, 1.5% NP-40, 0.1% SDS, and 0.5% sodium deoxycholate) supplemented with protease cocktail inhibitor, 10 μM MG-132, 10 μg ml^−1 leupeptin and 1 mM phenylmethylsulfonyl fluoride. The protein concentrations of lysates were determined using BCA method (Beyotime). Samples were mixed with the membrane protein solubilization buffer (62.5 mM Tris-HCl, pH 6.8, 15% SDS, 8 M urea, 10% glycerol, and 100 mM DTT) plus the 4× loading buffer (150 mM Tris-HCl, pH 6.8, 12% SDS, 30% glycerol, 6% 2-mercaptoethanol, and 0.02% bromophenol blue) and incubated for 30 min at 37 °C. Proteins were resolved by SDS-PAGE and transferred to nitrocellulose membranes (GE Healthcare). Immnoblots were blocked with 5% non-fat milk in TBS containing 0.075% Tween-20 (TBST) and probed with indicated antibodies overnight at 4 °C. After washing in TBST for five times, blots were incubated with HRP-conjugated secondary antibodies for 2 h at room temperature. Immunoreactivity was developed with Clarity Western ECL chemiluminescent substrates (170–5061, Bio-Rad). Western blot images were captured by Amersham Imager 600 (GE Healthcare), and integrated optical intensities of each band were quantified by Image-Pro Plus 6 software (Media Cybernetics). Uncropped blots are shown in Supplementary Figs. 9–13.

[3] = C57BL/6J mice, MFMC diet, 6 weeks

Question: What does the source list for `C=CCC(O)(CC=C)CCCC(C)C1CCC2C3C(O)C=C4C(C)(C)C(O)CCC4(C)C3CCC12C` (stereo not shown) [Cmpd 81]?
Answer: body weight and food intake [1, 3]: remained comparable; body weight and food intake ([1]; Ldlr−/− mice, WD, up to 20 weeks): did not affect; endogenous HMGCR protein (immunoblot), mean ([2]; CHO-7, 0.01 uM, 16 h): 96.5896; endogenous HMGCR protein (immunoblot), mean ([2]; CHO-7, 0.03 uM, 16 h): 105.12; endogenous HMGCR protein (immunoblot), mean ([2]; CHO-7, 0.1 uM, 16 h): 84.2505; endogenous HMGCR protein (immunoblot), mean ([2]; CHO-7, 0.3 uM, 16 h): 66.4121; endogenous HMGCR protein (immunoblot), mean ([2]; CHO-7, 1 uM, 16 h): 9.931; endogenous HMGCR protein (immunoblot), mean ([2]; CHO-7, 3 uM, 16 h): 3.826; HMGCR degradation induced by Cmpd 81 on addition of proteasome inhibitor MG-132 ([2]; CHO-7, 10 μM MG-132, 5 h): completely blocked; endogenous HMGCR protein (immunoblot), mean ([2]; CHO-7, 10 uM, 16 h): 1.121; endogenous HMGCR protein (immunoblot), mean ([2]; CHO-7, 20 uM, 16 h): 1.6114; HMGCR protein fold change ([2]; CHO-7, Cmpd 81 1 μM with lovastatin 1 μM): 5.141; HMGCR protein fold change ([2]; CHO-7, Cmpd 81 1 μM, without lovastatin): 0.3231; HMGCR protein fold change ([2]; CHO-7, Cmpd 81 3 μM with lovastatin 1 μM): 1.706; HMGCR protein fold change ([2]; CHO-7, Cmpd 81 3 μM, without lovastatin): 0.1204; HMGCR protein fold change ([2]; CHO-7, Cmpd 81 10 μM with lovastatin 1 μM): 0.399; reduction in HMGCR ([2]; CHO-7 cells, 1 μM, 16 h): more than 80%; EC50 ([2]; CHO-7 cells, 16 h, read-out: EC50 to decrease endogenous HMGCR (dose–response immunoblotting)): 390 nM; HMGCR protein induced by simvastatin, pravastatin, fluvastatin, atorvastatin and rosuvastatin ([2]; cultured cells): similarly reduced

Question: With `CC[C@H](C)C(=O)O[C@H]1C[C@@H](C)C=C2C=C[C@H](C)[C@H](CC[C@@H]3C[C@@H](O)CC(=O)O3)[C@H]21` [Lovastatin, lovastatin] as the compound, how does the “body weight and food intake” value [1, 3] read?
Answer: remained comparable

Question: And the “HMGCR protein level, mean” value ([2]; CHO-7, lovastatin 0.001 uM, 16 h, DMSO = 1)?
Answer: 1.706

Question: And the “HMGCR protein level, mean” value ([2]; CHO-7, lovastatin 0.003 uM, 16 h, DMSO = 1)?
Answer: 2.872

Question: And the “HMGCR protein level, mean” value ([2]; CHO-7, lovastatin 0.01 uM, 16 h, DMSO = 1)?
Answer: 6.395

Question: And the “HMGCR protein level, mean” value ([2]; CHO-7, lovastatin 0.03 uM, 16 h, DMSO = 1)?
Answer: 10.2955

Question: What about the “HMGCR protein level, mean” value ([2]; CHO-7, lovastatin 0.1 uM, 16 h, DMSO = 1) of the same compound?
Answer: 11.6269

Question: What about the “HMGCR protein level, mean” value ([2]; CHO-7, lovastatin 0.3 uM, 16 h, DMSO = 1) of the same compound?
Answer: 13.3691

Question: What about the “HMGCR protein fold change” value ([2]; CHO-7, lovastatin 1 μM alone) of the same compound?
Answer: 16.2295

Question: What about the “HMGCR protein level, mean” value ([2]; CHO-7, lovastatin 1 uM, 16 h, DMSO = 1) of the same compound?
Answer: 14.123

Question: And the “HMGCR protein level, mean” value ([2]; CHO-7, lovastatin 3 uM, 16 h, DMSO = 1)?
Answer: 14.7817

Question: And the “HMGCR protein level, mean” value ([2]; CHO-7, lovastatin 10 uM, 16 h, DMSO = 1)?
Answer: 14.2587

Question: And the “increase of HMGCR protein (maximum increment)” value ([2]; CHO-7 cells, statin 16 h, DMSO = 1)?
Answer: ~ 15 fold
